Patent US20250340551A1, “SMALL MOLECULE MODULATORS OF STAT6” (Gilead Sciences, Inc., priority 2024, published 2025)

Biological target: human STAT6 (Homo sapiens (Human), UniProt P42226)
Assay: Surface plasmon resonance assay (Biacore 8K, binding to immobilized STAT6)
Conditions: human STAT6 aa122-658, N-terminal His-tag, CM5 chip, 25° C.; geometric mean; read-out: STAT6 SPR Kd
Description: Biacore instruments from the 8K-series (Cytiva) were used, and measurements were performed at 25° C. Human STAT6 (truncated, aa122-658, with N-terminal His-tag, expressed in insect cells) was immobilized in the active flow cells on a CM5 chip using amine-coupling (default settings) at 10 μg/ml in 10 mM acetate buffer pH 5.5, at a contact time of 120-420 sec. and a flow rate of 10 μl/min. Reference flow cells were deactivated using blank immobilization. PBS-P+ (Cytiva) supplemented with 2% DMSO was used as running buffer, and solvent correction was applied. Compounds were tested by multi-cycle kinetics injections using a contact time of 60 sec., dissociation time of up to 300 sec., and a flow rate of 30 μl/min.
Solvent-corrected, reference-subtracted and blank-corrected data was processed and binding isotherms were fitted according to a single report point from each sensorgram (Standard: Late binding (5 sec. before injection end); alternative: Earlier report point according to binding profile). Data fitting was done both with unfixed Rmax and with Rmax fixed to the theoretical value* assuming 1:1 binding to allow processing of data from both weak and strong binders as well as to evaluate binding stoichiometry.
Positive controls were run at the beginning, during, and at the end of the screen to evaluate surface activity.

Chain of human STAT6 (P42226 122-658): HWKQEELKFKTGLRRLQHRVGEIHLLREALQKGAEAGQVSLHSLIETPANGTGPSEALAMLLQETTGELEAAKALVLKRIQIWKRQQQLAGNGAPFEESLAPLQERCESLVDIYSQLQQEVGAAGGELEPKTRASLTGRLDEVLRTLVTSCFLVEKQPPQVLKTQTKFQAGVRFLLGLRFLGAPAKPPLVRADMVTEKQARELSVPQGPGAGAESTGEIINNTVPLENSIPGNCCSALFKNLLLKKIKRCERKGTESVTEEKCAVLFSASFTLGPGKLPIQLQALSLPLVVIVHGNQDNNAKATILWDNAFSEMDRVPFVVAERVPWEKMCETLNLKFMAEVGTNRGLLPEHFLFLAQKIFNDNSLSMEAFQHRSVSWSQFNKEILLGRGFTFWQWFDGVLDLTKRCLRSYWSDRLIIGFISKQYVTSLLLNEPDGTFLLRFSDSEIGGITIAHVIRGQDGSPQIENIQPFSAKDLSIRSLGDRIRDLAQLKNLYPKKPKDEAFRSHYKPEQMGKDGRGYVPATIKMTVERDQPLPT

Compound	Kd
CNc1ccc(-c2ccnc3c2cc(CN2CCC(c4ncc(C(=O)N(C)C)cc4C)CC2)n3C)cn1 [Example 1s15, N,N,5-Trimethyl-6-[1-[[1-methyl-4-[6-(methylamino)-3-pyridyl]pyrrolo[2,3-b]pyridin-2-yl]methyl]-4-piperidyl]pyridine-3-carboxamide]	119 nM
C[C@@H]1C[C@@H](c2ccc(C(=O)N(C)C)cc2)CCN1Cc1cc2c(-c3ccc(N)nc3C#N)ccnc2n1C (single isomer, unassigned) [Example 1q3]	4240 nM
CN(C)C(=O)c1ccc(C2CCN(Cc3cc4c(-c5cnc(N)c(O)c5)ccnc4n3C)CC2)cc1 [Example 1k50, 4-[1-[[4-(6-Amino-5-hydroxy-3-pyridyl)-1-methyl-pyrrolo[2,3-b]pyridin-2-yl]methyl]-4-piperidyl]-N,N-dimethyl-benzamide]	557 nM
C[C@H]1C[C@H](c2ccc(C(=O)N(C)C)cc2)CCN1Cc1cc2c(-c3ccc(N)nc3C#N)ccnc2n1C (single isomer, unassigned) [Example 1q2]	2560 nM
COC(=O)c1cc(N)ncc1-c1ccnc2c1cc(CN1CCC(c3ccc(C(=O)N(C)C)cc3)CC1)n2C [Example 1k56, Methyl 2-amino-5-[2-[[4-[4-(dimethylcarbamoyl)phenyl]-1-piperidyl]methyl]-1-methyl-pyrrolo[2,3-b]pyridin-4-yl]pyridine-4-carboxylate]	1400 nM
CC(=O)Nc1ccc(-c2ccnc3c2cc(CN2CC[C@H](c4ccc(C(=O)N(C)C)cc4)[C@H](F)C2)n3C)cc1 [Example 1r5, N,N-Dimethyl-4-[(3S,4R)-1-[[4-(4-acetamidophenyl)-1-methyl-pyrrolo[2,3-b]pyridin-2-yl]methyl]-3-fluoro-4-piperidyl]benzamide]	110 nM
CNc1ccc(-c2ccnc3c2cc(CN2CCN(c4ccc(C(=O)N(C)C)cn4)CC2)n3C)cn1 [Example 1n7, N,N-Dimethyl-6-[4-[[1-methyl-4-[6-(methylamino)-3-pyridyl]pyrrolo[2,3-b]pyridin-2-yl]methyl]piperazin-1-yl]pyridine-3-carboxamide]	1040 nM
C[C@@H](c1cc2c(-c3ccc(N)cn3)ccnc2n1C)N1CC=C(c2ccc(C(=O)N(C)C)cc2)CC1 [Example 1af19, (S)-4-(1-(1-(4-(5-Aminopyridin-2-yl)-1-methyl-1H-pyrrolo[2,3-b]pyridin-2-yl)ethyl)-1,2,3,6-tetrahydropyridin-4-yl)-N,N-dimethylbenzamide]	2360 nM
CC(=O)Nc1cc(C)c(-c2ccnc3c2cc(CN2CCC(c4ccc(C(=O)N(C)C)cc4)CC2)n3C)cn1 [Example 1k28, 4-[1-[[4-(6-Acetamido-4-methyl-3-pyridyl)-1-methyl-pyrrolo[2,3-b]pyridin-2-yl]methyl]-4-piperidyl]-N,N-dimethyl-benzamide]	428 nM
Cc1cc(C(=O)N(C)C)ccc1C1CCN([C@H](C)c2cc3c(-c4ccc(N)nc4C#N)ccnc3n2C)CC1 [Example 1af28, (R)-4-(1-(1-(4-(6-amino-2-cyanopyridin-3-yl)-1-methyl-1H-pyrrolo[2,3-b]pyridin-2-yl)ethyl)piperidin-4-yl)-N,N,3-trimethylbenzamide]	5310 nM
CN(C)C(=O)c1ccc(C2CCN(Cc3cc4c(-c5cnc(N)c(C#N)c5)ccnc4n3C)CC2)cc1 [Example 1k21, 4-[1-[[4-(6-Amino-5-cyano-3-pyridyl)-1-methyl-pyrrolo[2,3-b]pyridin-2-yl]methyl]-4-piperidyl]-N,N-dimethyl-benzamide]	935 nM
CC(=O)Nc1ccc(-c2ccnc3c2cc(CN2CC[C@@H](c4ccc(C(=O)N(C)C)cc4)[C@H](C)C2=O)n3C)cc1 (single isomer, unassigned) [Example 1aa2]	203 nM
CNc1ccc(-c2ccnc3c2cc(CN2CCC(n4ccc(C(=O)N(C)C)cc4=O)CC2)n3C)cn1 [Example 1s6, N,N-Dimethyl-1-[1-[[1-methyl-4-[6-(methylamino)-3-pyridyl]pyrrolo[2,3-b]pyridin-2-yl]methyl]-4-piperidyl]-2-oxo-pyridine-4-carboxamide]	595 nM
COC(=O)c1cc(-c2ccnc3c2cc(CN2CCC(c4ccc(C(=O)N(C)C)cc4)CC2)n3C)cnc1N [Example 1k10, Methyl 2-amino-5-[2-[[4-[4-(dimethylcarbamoyl)phenyl]-1-piperidyl]methyl]-1-methyl-pyrrolo[2,3-b]pyridin-4-yl]pyridine-3-carboxylate]	2630 nM
CN(C)C(=O)c1ccc(C2CCN(Cc3cc4c(-c5ncc(N)cc5C(F)(F)F)ccnc4n3C)CC2)cc1 [Example 1k74, 4-[1-[[4-[5-Amino-3-(trifluoromethyl)-2-pyridyl]-1-methyl-pyrrolo[2,3-b]pyridin-2-yl]methyl]-4-piperidyl]-N,N-dimethyl-benzamide]	7290 nM

The next molecules have a lower Kd than those just listed; values first:

Kd	Compound
35.9 nM	CN(C)C(=O)c1ccc(C2CCN(Cc3cc4c(-c5ccc(N)c(-c6nnn[nH]6)c5)ccnc4n3C)CC2)cc1 [Example 1k60, 4-[1-[[4-[4-Amino-3-(2H-tetrazol-5-yl)phenyl]-1-methyl-pyrrolo[2,3-b]pyridin-2-yl]methyl]-4-piperidyl]-N,N-dimethyl-benzamide]
102 nM	C[C@@H](c1cc2c(-c3ccc(N)nc3)ccnc2n1C)N1CCC(c2ccc(C(=O)N(C)C)cc2)CC1 [Example 1af11, (S)-4-(1-(1-(4-(6-amino-pyridin-3-yl)-1-methyl-1H-pyrrolo[2,3-b]pyridin-2-yl)ethyl)-piperidin-4-yl)-N,N-dimethyl-benzamide]
48.1 nM	CNc1ccc(-c2ccnc3c2cc(CN2CCC(c4ccc(C(=O)N(C)C)cc4C)CC2)n3C)cn1 [Example 1s9, N,N,3-Trimethyl-4-[1-[[1-methyl-4-[6-(methylamino)-3-pyridyl]pyrrolo[2,3-b]pyridin-2-yl]methyl]-4-piperidyl]benzamide]
15.5 nM	C[C@H](c1cc2c(-c3ccc(N)cn3)ccnc2n1C)N1CCC(c2ccc(C(=O)N(C)C)cc2)CC1 [Example 1af16, (R)-4-(1-(1-(4-(5-aminopyridin-2-yl)-1-methyl-1H-pyrrolo[2,3-b]pyridin-2-yl)ethyl)piperidin-4-yl)-N,N-dimethylbenzamide]
59.3 nM	CCOC(=O)c1nc(-c2ccnc3c2cc(CN2CCC(c4ccc(C(=O)N(C)C)cc4)CC2)n3C)ccc1N [Example 1k78, Ethyl 3-amino-6-(2-((4-(4-(dimethylcarbamoyl)phenyl)piperidin-1-yl)methyl)-1-methyl-1H-pyrrolo[2,3-b]pyridin-4-yl)picolinate]
22.3 nM	CN(C)C(=O)c1ccc(C2CCN(Cc3cc4c(-c5ccc(N)nc5)ccnc4n3C)CC2)cc1 [Example 1z19, 4-(1-((4-(6-aminopyridin-3-yl)-1-methyl-1H-pyrrolo[2,3-b]pyridin-2-yl)methyl)piperidin-4-yl)-N,N-dimethylbenzamide]
62.1 nM	Cc1cc(N)ncc1-c1ccnc2c1cc(CN1CCC(c3ccc(C(=O)N(C)C)cc3)CC1)n2C [Example 1k30, 4-[1-[[4-(6-Amino-4-methyl-3-pyridyl)-1-methyl-pyrrolo[2,3-b]pyridin-2-yl]methyl]-4-piperidyl]-N,N-dimethyl-benzamide]
51.1 nM	CNc1ccc(-c2ccnc3c2cc(CN2CCC(c4ccc(C(=O)N(C)C)cc4)CC2=O)n3C)cn1 (stereo in doubt) [Example 1s4, N,N-dimethyl-4-[(4S)-1-[[1-methyl-4-[6-(methylamino)-3-pyridyl]pyrrolo[2,3-b]pyridin-2-yl]methyl]-2-oxo-4-piperidyl]benzamide]
38.9 nM	CN(C)C(=O)c1ccc(C2CCN(Cc3cc4c(-c5cnc(N)cc5F)ccnc4n3C)CC2)cc1 [Example 1k15, 4-[1-[[4-(6-Amino-4-fluoro-3-pyridyl)-1-methyl-pyrrolo[2,3-b]pyridin-2-yl]methyl]-4-piperidyl]-N,N-dimethyl-benzamide]
16.5 nM	CN(C)C(=O)c1ccc(C2CCN(Cc3cc4c(-c5ccc(NCCO)nc5)ccnc4n3C)CC2)cc1 [Example 1k61, 4-[1-[[4-[6-(2-Hydroxyethylamino)-3-pyridyl]-1-methyl-pyrrolo[2,3-b]pyridin-2-yl]methyl]-4-piperidyl]-N,N-dimethyl-benzamide]
22.3 nM	CNc1ccc(-c2ccnc3c2cc(C(C)N2CCC(c4ccc(C(=O)N(C)C)cc4)CC2)n3C)cn1 (stereo not shown) [Example 1z13, N,N-dimethyl-4-(1-(1-(1-methyl-4-(6-(methylamino)pyridin-3-yl)-1H-pyrrolo[2,3-b]pyridin-2-yl)ethyl)piperidin-4-yl)benzamide]
22.6 nM	[2H]C([2H])([2H])N(C(=O)c1ccc(C2CCN(Cc3cc4c(-c5cnc(N)cc5F)ccnc4n3C)CC2)cc1)C([2H])([2H])[2H] [Example 1k16, 4-[1-[[4-(6-Amino-4-fluoro-3-pyridyl)-1-methyl-pyrrolo[2,3-b]pyridin-2-yl]methyl]-4-piperidyl]-N,N-bis(trideuteriomethyl)benzamide]
53.5 nM	CN(C)C(=O)c1ccc(C2CCN(Cc3cc4c(-c5cnc(N)cc5C(F)F)ccnc4n3C)CC2)cc1 [Example 1k52, 4-[1-[[4-[6-Amino-4-(difluoromethyl)-3-pyridyl]-1-methyl-pyrrolo[2,3-b]pyridin-2-yl]methyl]-4-piperidyl]-N,N-dimethyl-benzamide]
